Several values for one entry are separate records, joined by “and”; a condition that tells them apart may be missing. Equal entries are not always repeated.
Experiments:
[1] = assay type: physicochemical
[2] = system: Pseudomonas aeruginosa and Staphylococcus aureas; assay type: cell-based
Pseudomonas aeruginosa = assay type: cell-based
Staphylococcus aureas = assay type: cell-based

Compound	% Separation 1 h [1]	% Separation 24 h [1]	Adjuvant 1 h, emulsion stability, mL separation [mL]	Anionic 1 h, emulsion stability, mL separation [mL]	Nonionic 1 h, emulsion stability, mL separation [mL]	Adjuvant 24 h, emulsion stability, mL separation [mL]	Anionic 24 h, emulsion stability, mL separation [mL]	Nonionic 24 h, emulsion stability, mL separation [mL]	Overall Rating [2]	% Kill, 400 ppm (Pseudomonas aeruginosa) [%]	% Kill, DI water (Pseudomonas aeruginosa) [%]	% Kill, 400 ppm (Staphylococcus aureas) [%]	% Kill, DI water (Staphylococcus aureas) [%]
CCC(CCCCCCCCC(=O)OCCOC)S(=O)(=O)[O-].[Na+] (centres unmarked) [C12-33, C12 eFAME Sulfonate]	3.2 C and 3.9 C	4 C and 4.1 C	0	0	0.25	0	0	0.25					
COCCOC(=O)CCCCCCCCC(CCCCCCCC(=O)OCCOC)S(=O)(=O)[O-].[Na+] (centres unmarked) [Mix-61, C18 eFAME Sulfonate]	3.8 C and 3.7 C	4 C and 3.9 C											
C10 6EO eFAME [C10-9]									good	29.1	37.2	23.4	38.4
C10 24EO eFAME Sulfonate [C10-30]	3.8 C and 2.8 C	4 C and 3 C	0	0	0.25	0	0	0.25					
C10 24EO eFAME [C10-11]									good	21.3	28.9	30.9	42.5
C12 6EO eFAME Sulfonate [C12-10]	4 C and 3.8 C	4.1 C and 4 C	0	0		0	0	0.25					
C12 6EO eFAME [C12-9]									good	23.2	32.6	3.2	36.2
C12 27EO eFAME Sulfonate [C12-32]	3 C and 2.9 C	3.2 C	0	0	0.5	0	0	0.5					
C12 27EO eFAME [C12-11]									good	30.1	34.9	36.2	42.7

Reference: patent US9506013B2 (priority 2010, dated 2016)
